Experimental data from ChEMBL document CHEMBL1147768, “Novel histamine H3 receptor antagonists based on the 4-[(1H-imidazol-4-yl)methyl]piperidine scaffold” (Bioorg Med Chem Lett, 2006).

molecular target: Cytochrome P450 2D6 (Homo sapiens, UniProt P10635); assay: Inhibition of CYP2D6 in human liver microsomes; format: ADME, Microsome; conditions: not given
Sequence (P10635 whole entry): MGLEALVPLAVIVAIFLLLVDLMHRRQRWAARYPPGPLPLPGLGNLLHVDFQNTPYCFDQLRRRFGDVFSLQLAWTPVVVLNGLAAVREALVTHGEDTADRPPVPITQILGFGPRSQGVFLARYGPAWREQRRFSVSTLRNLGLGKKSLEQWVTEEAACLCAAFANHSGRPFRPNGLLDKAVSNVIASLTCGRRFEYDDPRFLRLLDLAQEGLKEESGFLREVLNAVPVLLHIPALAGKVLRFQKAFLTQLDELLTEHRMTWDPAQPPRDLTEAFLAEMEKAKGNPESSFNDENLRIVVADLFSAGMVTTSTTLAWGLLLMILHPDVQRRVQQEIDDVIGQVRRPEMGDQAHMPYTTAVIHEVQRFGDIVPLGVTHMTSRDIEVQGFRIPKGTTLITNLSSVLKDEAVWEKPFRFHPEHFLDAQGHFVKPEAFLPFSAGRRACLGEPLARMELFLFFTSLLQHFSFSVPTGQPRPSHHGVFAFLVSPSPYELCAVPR

Row | IC50 [nM] | SMILES
1 | 40 | O=C(CCN1CCC(Cc2c[nH]cn2)CC1)Nc1ccc(Cl)cc1
2 | 100 | O=C(CCN1CCC(Cc2c[nH]cn2)CC1)Nc1cccc(F)c1

molecular target: Histamine H1 receptor (Cavia porcellus, UniProt P31389); assay: Displacement of [3H]N-alpha-methylhistamine from histamine H1 receptor in guinea pig brain; conditions: not given
Sequence (P31389 whole entry): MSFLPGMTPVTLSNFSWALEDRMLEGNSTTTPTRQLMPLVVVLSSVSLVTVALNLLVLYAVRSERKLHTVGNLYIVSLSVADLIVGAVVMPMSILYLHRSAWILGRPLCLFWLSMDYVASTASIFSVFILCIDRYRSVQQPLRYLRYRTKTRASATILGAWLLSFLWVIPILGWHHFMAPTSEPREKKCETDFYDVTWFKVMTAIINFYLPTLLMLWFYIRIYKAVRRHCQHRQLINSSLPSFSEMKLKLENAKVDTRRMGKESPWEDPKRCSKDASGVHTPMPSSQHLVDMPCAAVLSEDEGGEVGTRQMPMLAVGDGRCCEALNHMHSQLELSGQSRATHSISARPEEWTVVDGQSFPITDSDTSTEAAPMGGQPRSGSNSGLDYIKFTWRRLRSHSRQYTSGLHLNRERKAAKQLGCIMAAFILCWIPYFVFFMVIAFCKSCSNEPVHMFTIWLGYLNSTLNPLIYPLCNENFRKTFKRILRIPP

Row | Ki [nM] | SMILES
3 | 290 | O=C(CCN1CCC(Cc2c[nH]cn2)CC1)Nc1ccc(Cl)cc1

molecular target: T1, Histamine H3 receptor (Cavia porcellus, UniProt Q9JI35); assay: Displacement of [3H]N-alpha-methylhistamine from histamine H3 receptor in guinea pig brain; conditions: not given
T1 sequence (Q9JI35 whole entry): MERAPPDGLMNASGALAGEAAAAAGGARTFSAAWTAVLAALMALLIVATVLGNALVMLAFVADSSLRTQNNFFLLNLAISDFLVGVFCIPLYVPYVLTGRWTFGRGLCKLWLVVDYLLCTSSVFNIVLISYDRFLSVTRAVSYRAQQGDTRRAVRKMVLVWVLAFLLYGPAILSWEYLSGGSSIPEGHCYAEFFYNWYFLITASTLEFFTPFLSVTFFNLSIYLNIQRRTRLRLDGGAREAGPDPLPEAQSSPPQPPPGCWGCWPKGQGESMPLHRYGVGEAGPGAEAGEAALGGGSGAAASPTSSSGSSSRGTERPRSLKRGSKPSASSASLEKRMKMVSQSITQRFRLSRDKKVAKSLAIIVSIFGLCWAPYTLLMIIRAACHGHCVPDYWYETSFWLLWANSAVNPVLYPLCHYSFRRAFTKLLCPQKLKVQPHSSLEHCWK

Row | Ki [nM] | SMILES
4 | 625 | COC(=O)c1ccc(OCCC(=O)N2CCC(Cc3c[nH]cn3)CC2)cc1
5 | 60 | CN(C(=O)CCN1CCC(Cc2cnc[nH]2)CC1)c1ccc(Cl)cc1
6 | 13 | O=C(NCCCN1CCC(Cc2cnc[nH]2)CC1)c1ccc(Cl)cc1
7 | 5 | c1ccc(CCCCN2CCC(Cc3cnc[nH]3)CC2)cc1
8 | 9 | O=C(CCCc1ccccc1)N1CCC(Cc2cnc[nH]2)CC1
9 | 17 | O=C(CCCN1CCC(Cc2cnc[nH]2)CC1)Nc1ccc(Cl)cc1
10 | 3 | COc1ccc(NC(=O)CCN2CCC(Cc3cnc[nH]3)CC2)cc1
11 | 6 | Clc1ccc(CCCCN2CCC(Cc3cnc[nH]3)CC2)cc1
12 | 970 | O=C(CCC(=O)N1CCC(Cc2c[nH]cn2)CC1)Nc1ccc(Cl)cc1
13 | 25 | O=S(=O)(CCCN1CCC(Cc2c[nH]cn2)CC1)c1ccccc1
14 | 20 | N#Cc1ccc(OCCCN2CCC(Cc3c[nH]cn3)CC2)cc1
15 | 2 | Clc1cccc(NCCCN2CCC(Cc3cnc[nH]3)CC2)c1
16 | 44 | O/N=C/c1ccc(OCCCN2CCC(Cc3c[nH]cn3)CC2)cc1
17 | 0.4 | c1nc(CC2CCNCC2)c[nH]1 [IMMEPIP]
18 | 3 | O=C(CCN1CCC(Cc2cnc[nH]2)CC1)NC1CCCCC1
19 | 3 | COC(=O)c1ccc(NC(=O)CCN2CCC(Cc3cnc[nH]3)CC2)cc1
20 | 18 | CCCCCCC(=O)N1CCC(Cc2c[nH]cn2)CC1
21 | 9 | O=C(NCCN1CCC(Cc2cnc[nH]2)CC1)c1ccc(Cl)cc1
22 | 21 | O=C(CCN1CCC(Cc2c[nH]cn2)CC1)NCc1ccc(Cl)cc1
23 | 2 | O=C(CCN1CCC(Cc2c[nH]cn2)CC1)Nc1ccccc1
24 | 2 | Clc1cccc(OCCCN2CCC(Cc3cnc[nH]3)CC2)c1
25 | 0.2 | O=C(CCN1CCC(Cc2c[nH]cn2)CC1)Nc1cccc(F)c1
26 | 40 | O=C(CCCCN1CCC(Cc2cnc[nH]2)CC1)Nc1ccc(Cl)cc1
27 | 170 | O=S(=O)(CCN1CCC(Cc2c[nH]cn2)CC1)Nc1ccc(Cl)cc1

molecular target: T1, Histamine H3 receptor; assay: Antagonist potency against histamine H3 receptor in an electrically stimulated guinea pig ileum; format: functional, tissue-based; conditions: read-out: pA2 (converted)

Row | Kb [nM] | SMILES
28 | 6.31 | c1ccc(CCCCN2CCC(Cc3cnc[nH]3)CC2)cc1
29 | 15.8 | O=C(CCCc1ccccc1)N1CCC(Cc2cnc[nH]2)CC1
30 | 5.01 | O=C(CCCN1CCC(Cc2cnc[nH]2)CC1)Nc1ccc(Cl)cc1
31 | 1.58 | COc1ccc(NC(=O)CCN2CCC(Cc3cnc[nH]3)CC2)cc1
32 | 1.58 | Clc1ccc(CCCCN2CCC(Cc3cnc[nH]3)CC2)cc1
33 | 5.01 | c1ccc(OCCCN2CCC(Cc3c[nH]cn3)CC2)cc1
34 | 0.0794 | O=C(CCN1CCC(Cc2c[nH]cn2)CC1)Nc1ccc(Cl)cc1
35 | 79.4 | O=S(=O)(CCCN1CCC(Cc2c[nH]cn2)CC1)c1ccccc1
36 | 15.8 | O=C(CCOc1ccccc1)N1CCC(Cc2cnc[nH]2)CC1
37 | 3.98 | Clc1cccc(NCCCN2CCC(Cc3cnc[nH]3)CC2)c1
38 | 0.158 | O=C(CCN1CCC(Cc2c[nH]cn2)CC1)Nc1cccc(Cl)c1
39 | 2.51 | CCCCCCCN1CCC(Cc2cnc[nH]2)CC1
40 | 6.31 | O=C(CCN1CCC(Cc2cnc[nH]2)CC1)NC1CCCCC1
41 | 1.58 | COC(=O)c1ccc(NC(=O)CCN2CCC(Cc3cnc[nH]3)CC2)cc1
42 | 39.8 | CCCCCCC(=O)N1CCC(Cc2c[nH]cn2)CC1
43 | 12.6 | O=C(NCCN1CCC(Cc2cnc[nH]2)CC1)c1ccc(Cl)cc1
44 | 1.26 | O=C(CCN1CCC(Cc2c[nH]cn2)CC1)Nc1ccccc1
45 | 12.6 | Clc1cccc(OCCCN2CCC(Cc3cnc[nH]3)CC2)c1
46 | 0.126 | O=C(CCN1CCC(Cc2c[nH]cn2)CC1)Nc1cccc(F)c1

molecular target: Histamine H3 receptor (Homo sapiens, UniProt Q9Y5N1); assay: Displacement of [3H]N-alpha-methylhistamine from histamine H3 receptor in human brain; conditions: not given
Sequence (Q9Y5N1 whole entry): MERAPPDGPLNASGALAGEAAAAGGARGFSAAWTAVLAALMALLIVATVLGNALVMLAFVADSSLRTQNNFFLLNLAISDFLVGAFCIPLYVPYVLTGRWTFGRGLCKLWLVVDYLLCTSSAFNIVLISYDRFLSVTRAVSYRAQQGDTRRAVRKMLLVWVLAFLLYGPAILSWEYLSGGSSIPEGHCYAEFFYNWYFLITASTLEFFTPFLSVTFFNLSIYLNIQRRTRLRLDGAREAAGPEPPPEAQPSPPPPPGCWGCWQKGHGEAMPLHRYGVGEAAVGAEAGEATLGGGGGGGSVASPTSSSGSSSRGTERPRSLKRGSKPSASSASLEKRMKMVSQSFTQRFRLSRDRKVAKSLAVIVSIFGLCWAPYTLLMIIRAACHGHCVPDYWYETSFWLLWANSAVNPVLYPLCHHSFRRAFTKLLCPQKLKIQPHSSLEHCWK

Row | Ki [nM] | SMILES
47 | 1.7 | O=C(CCN1CCC(Cc2c[nH]cn2)CC1)Nc1ccc(Cl)cc1
48 | 0.4 | O=C(CCN1CCC(Cc2c[nH]cn2)CC1)Nc1cccc(Cl)c1
49 | 1.9 | O=C(CCN1CCC(Cc2c[nH]cn2)CC1)Nc1cccc(F)c1
